What was measured:
[1] = target: T1, human DNA-PK (Homo sapiens, UniProt P78527); assay: Standard DNA-PK assay (p53 peptide phosphorylation); type: biochemical; conditions: read-out: IC50 (nM) DNA-PK Assay
T1 construct: The frozen HeLa cell pellet was thawed at 37° C. and immediately centrifuged; endogenous in cells; host or cells: HeLa S3 cells (ATCC CCL-2.2); Endogenous enzyme purified via S100-2 fraction, Q-Sepharose FF and SP-Sepharose FF (fraction IV)
Experimental: Reactions were carried out at room temperature. Reactions were started by addition of ATP and stopped by application to phosphocellulose paper. Reaction products spotted onto phosphocellulose paper were washed five times with a total volume of at least 250 mL 10% acetic acid or 150 mM phosphoric acid. The paper was air dried and radioactivity was determined in a Beckman LS6000IC scintillation counter.

[2] = test system: MDA-MB231 (human breast carcinoma) cells; assay: DNA double-strand break repair assay (pulse field electrophoresis); type: cell-based; conditions: 25 Gy; concentrations which enhanced radiation induced cell killing
Experimental: To further determine the cellular effect of DNA-PK inhibitors, an assay to measure chromosomal discontinuities was employed. Ionizing radiation induces chromosomal DNA double-strand breaks. Following high dose radiation, chromosomes can be extracted from cells and fractionated by pulse field electrophoresis to distinguish chromosomal fragments from intact larger chromosomes. Using this technique, the activity of DNA-PK inhibitors was measured.
MDA-MB231 (human breast carcinoma) cells were seeded onto T25 flasks with RPMI1640+10% FBS, 2 mM L-glutamine, penicillin G 100 U/ml-streptomycin sulfate 10 μg/ml, 1 mM Na pyruvate. When confluent, media was removed and replaced with media containing DNA-PK inhibitor or vehicle. Cells were incubated at 37° C. for 1 hr in a humidified chamber with 5% CO2. Media then was removed and flasks were filled with ice-cold D-PBS and either: (a) processed immediately; (b) irradiated (25 Gy in a ^137Cs Mark I irradiator at a flux of 335 rad/min) and processed immediately; (c) irradiated and incubated for 2 hr in complete RPMI1640+vehicle at 37° C. (in humidified 5% CO2 atmosphere to allow for DNA repair), or (d) irradiated and incubated for 2 hr in complete RPMI1640+DNA-PK inhibitor compound. […] Chromosomal DNA was visualized with SYBR-Gold (Molecular probes # S-11494) and the fluorescent image quantified on the STORM 860 (Molecular Dynamics).

[3] = test system: human colon carcinoma cell line HCT116; assay: cells; type: cell-based
Experimental: Cells plated at a density of 5,000 to 20,000 per well in 96-well microtiter plates were grown in RMPI 1640 containing 10% FBS, 100 U/mL penicillin and 100 μg/mL streptomycin, for 18 h at 37° C. in a humidified incubator with 5% CO2. Cells tested included ACHN, 786-0, HCT-116, SW620, SK-MEL-5, SK-MEL-28, A549, H322, OVCAR-3, SK-OV-3, MCF-7, MDA-MB-231, MOLT4, HL60, SNB-19, PC-3. Cells were treated with media containing chemotherapeutic drugs alone or with media containing chemotherapeutic drugs and a DNA-PK inhibitor of the invention, 1-(2-hydroxy-4-morpholin-4-yl-phenyl)-ethanone. Cells were incubated for two days before growth was measured using a tetrazolium dye assay (MTS). Chemotherapeutic drugs included bleomycin etoposide, vinblastine, doxorubicin, paclitaxel, cisplatin, chlorambucil, cyclophosphamide, 5-fluorouracil, cytosine-arabinoside, 6-mercaptoguanine and methotrexate (all purchased from Sigma). The drug concentration necessary to inhibit cell growth to 50% of untreated control cells was defined as the GI50.

[4] = test system: HCT116 cells (human colon carcinoma) xenograft tumors; assay: Animal tumor model, drug plus γ-radiation; type: in vivo, athymic BALB/c (nu/nu) mice; design: tumor growth with radiation plus drug: dose or concentration left out as unconfirmed; conditions: 250 rad plus drug once daily for five days
Experimental: HCT116 cells (human colon carcinoma) were used to propagate xenograft tumors in 6-8 week old female athymic BALB/c (nu/nu) mice. Mice were maintained in a laminar airflow cabinet under pathogen-free conditions and fed sterile food and water ad libitum. HCT116 cells were grown to subconfluence in McCoy's media supplemented with 10% FBS, 100 U/mL penicillin, 100 μg/mL streptomycin, and 1.5 mM L-glutamine in a 5% CO2 humidified environment. Single cell suspensions were prepared in CMF-PBS (0.9 mM KCl, 2.7 mM KH2PO4, 13.8 mM NaCl, pH 7.5), and cell concentration adjusted to 4×10^7 cells/mL. Mice were inoculated subcutaneously (s.c.) on the right flank or right leg with a total of 4×10^6 cells (100 μL).
Mice were randomized (5 mice/group) into four treatment groups and used when tumors reached a weight of 75 to 100 mg (usually 7 to 11 days post-inoculation). Tumors were measured with vernier calipers and tumor weights were estimated using the empirically-derived formula below. Tumor weight(mg)=tumor length(mm)×tumor width(mm)^2/3.3. […] Tumor size was monitored every other day for the duration of the experiment.

[5] = Pharmacokinetic analysis after subcutaneous administration; type: in vivo, mice
[6] = test system: Colon carcinoma cells (HCT116)

**Q.** Which IC50 [1] does the source give for `CC(=O)c1ccc(N2CCOCC2)cc1O` [Example 34, 1-(2-Hydroxy-4-morpholin-4-yl-phenyl)-ethanone] here?
**A.** The IC50 was 120 nM.

**Q.** What about the “chromosomal DNA double-strand break repair” value [2] of the same compound?
**A.** Its value is “inhibited DNA double-strand break repair”.

**Q.** What about the “GI50 (bleomycin) reduced” value ([3]; 100 μM inhibitor, two days) of the same compound?
**A.** The value was 7 fold.

**Q.** And the “potentiation of growth inhibitory effects of agents that do not induce DNA dsbs” value ([3]; vinblastine, doxorubicin, paclitaxel, cisplatin, cyclophosphamide, 5-fluorouracil, cytosine-arabinoside, 6-mercaptoguanine, methotrexate)?
**A.** The value was “did not potentiate”.

**Q.** What about the “chlorambucil GI50 reduced” value ([3]; with inhibitor, two days) of the same compound?
**A.** The value was 10 fold.

**Q.** And the “etoposide GI50 reduced” value ([3]; with inhibitor, two days)?
**A.** Its value is 10 fold.

**Q.** What about the “tumor growth with radiation plus drug” value [4] of the same compound?
**A.** Its value is “no increase in tumor growth”.

**Q.** And the “duration of high plasma concentration” value [5]?
**A.** The value was “remained high for about one hour”.

**Q.** And the “effect of drug alone on cell division” value [6]?
**A.** The value was “no effect on cell division”.

**Q.** And the “enhancement of etoposide LD50” value [6]?
**A.** Its value is 15 fold.

**Q.** And the “enhancement of etoposide LD90” value [6]?
**A.** Its value is 3 fold.

**Q.** And the “radiation LD50 lower than in the absence of drug” value ([6]; 200 μM)?
**A.** Its value is 4 fold.

**Q.** And the “radiation LD90 lower than without drug” value ([6]; 200 μM)?
**A.** Its value is 4 fold.

**Q.** What about the “sensitivity of HCT116 to killing by γ-radiation” value ([6]; 200 μM) of the same compound?
**A.** The value was “increased the sensitivity”.

**Q.** And the “radiation dosage which kills 50% of the cells (LD50) in the presence of drug” value ([6]; 200 μM, 150 rad without drug)?
**A.** Its value is 35 rad.

**Q.** And the “radiation dose that kills 90% of the cells (LD90) with drug” value ([6]; 200 μM, 410 rad without drug)?
**A.** The value was 100 rad.

**Q.** And the “D0, slope of the survival curve, with drug” value ([6]; 150 rad without drug)?
**A.** Its value is 50 rad.

Source: patent US8242115B2, “Materials and methods to potentiate cancer treatment” (Luitpold Pharmaceuticals, Inc., priority 2000, dated 2012)
